Molecular target: T1, hTAS1R1/rTAS1R3 (UniProt Q7RTX1+Q923K1)
T1 construct: UniProtKB number Q7RTX1–1); The cDNA coding region of rTAS1R3 was synthesized with optimized-codon usage for human expression; expressed in transfected cells; host or cells: HEK293T/17 (ATCC CRL-11268)
T1 sequence (Q7RTX1 21-841): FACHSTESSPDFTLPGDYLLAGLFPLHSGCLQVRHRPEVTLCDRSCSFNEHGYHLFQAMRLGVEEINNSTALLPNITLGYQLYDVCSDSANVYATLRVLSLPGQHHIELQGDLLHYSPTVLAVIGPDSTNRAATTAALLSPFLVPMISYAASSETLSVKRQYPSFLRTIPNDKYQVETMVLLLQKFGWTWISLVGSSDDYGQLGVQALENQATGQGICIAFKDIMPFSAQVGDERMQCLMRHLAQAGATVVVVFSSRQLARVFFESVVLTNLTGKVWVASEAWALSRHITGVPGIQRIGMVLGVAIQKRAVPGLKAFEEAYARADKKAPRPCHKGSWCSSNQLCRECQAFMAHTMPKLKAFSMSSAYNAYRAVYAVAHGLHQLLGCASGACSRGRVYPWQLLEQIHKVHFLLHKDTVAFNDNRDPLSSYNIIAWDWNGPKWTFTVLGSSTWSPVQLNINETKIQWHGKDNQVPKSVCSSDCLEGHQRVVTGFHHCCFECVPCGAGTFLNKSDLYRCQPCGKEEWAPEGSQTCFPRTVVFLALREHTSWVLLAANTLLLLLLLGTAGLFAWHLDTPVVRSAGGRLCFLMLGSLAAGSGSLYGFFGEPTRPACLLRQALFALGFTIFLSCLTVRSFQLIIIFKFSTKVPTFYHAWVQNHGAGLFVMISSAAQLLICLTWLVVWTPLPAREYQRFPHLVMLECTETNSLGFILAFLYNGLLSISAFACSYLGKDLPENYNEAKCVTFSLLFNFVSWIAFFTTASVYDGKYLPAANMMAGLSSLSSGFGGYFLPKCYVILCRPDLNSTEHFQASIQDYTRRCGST
T1 sequence (Q923K1 21-858): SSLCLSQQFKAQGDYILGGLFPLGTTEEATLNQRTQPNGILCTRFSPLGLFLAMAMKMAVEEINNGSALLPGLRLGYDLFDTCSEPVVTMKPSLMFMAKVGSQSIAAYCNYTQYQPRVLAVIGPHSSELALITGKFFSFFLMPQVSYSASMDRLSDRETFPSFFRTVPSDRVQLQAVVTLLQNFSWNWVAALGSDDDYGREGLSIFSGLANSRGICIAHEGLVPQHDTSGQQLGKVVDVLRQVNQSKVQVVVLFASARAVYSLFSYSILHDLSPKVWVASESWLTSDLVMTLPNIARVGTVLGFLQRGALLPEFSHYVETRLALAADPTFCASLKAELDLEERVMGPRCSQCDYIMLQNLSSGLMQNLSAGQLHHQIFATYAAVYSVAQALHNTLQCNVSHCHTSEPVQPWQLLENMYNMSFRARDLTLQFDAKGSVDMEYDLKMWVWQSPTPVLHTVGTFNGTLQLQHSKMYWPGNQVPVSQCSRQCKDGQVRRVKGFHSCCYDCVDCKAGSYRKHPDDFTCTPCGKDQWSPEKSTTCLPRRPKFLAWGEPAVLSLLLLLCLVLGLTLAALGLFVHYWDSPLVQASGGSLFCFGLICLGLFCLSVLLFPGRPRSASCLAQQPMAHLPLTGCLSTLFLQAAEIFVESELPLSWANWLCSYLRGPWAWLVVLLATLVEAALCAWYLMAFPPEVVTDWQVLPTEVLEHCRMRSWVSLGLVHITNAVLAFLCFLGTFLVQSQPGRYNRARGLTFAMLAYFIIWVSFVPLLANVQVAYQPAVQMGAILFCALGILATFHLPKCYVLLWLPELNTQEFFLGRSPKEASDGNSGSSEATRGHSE
Test: Calcium assay (GCaMP6s, Gα15i2) in transiently transfected HEK293T/17 cells
Format: cell-based, human, rat
Description: To this end, hTAS1R1/rTAS1R3 and the chimeric G protein Gα15i2 were transiently expressed in HEK293T cells. Cellular responses were assessed via calcium imaging using a fluorescent protein calcium biosensor (GCaMP6s) and compared with those of mock-transfected cells.

EC50 (WT, S807 alone, Fig. 4E) [µM]	SMILES	maximal response, fold lower than that elicited by L-Glu [fold]	EC50 (GSH alone, Fig. 6C) [µM]	EC50 (GSH alone, Fig. 6D) [µM]	EC50 (GSH alone, Fig. 6E) [µM]	EC50 (WT, GSH) [µM]	Max ∆F/F0 (WT, GSH)	R1 = mutant EC50/WT EC50 (WT, GSH)	EC50 (WT, GSH alone, Fig. 4C) [µM]	EC50 (agonist alone, Fig. 1, Fig. S2) [µM]	max ∆F/F0 (agonist alone, Fig. 1, Fig. S2)	effect on the dose-response curves to L-Glu (in the presence of 3 mM and 10 mM GSH, Fig. 6F)
–	N[C@@H](CCC(=O)N[C@@H](CS)C(=O)NCC(=O)O)C(=O)O [GSH, γ-L-glutamyl-L-cysteinyl-glycine]	2.2	3430 ± 98	4360 ± 308	3210 ± 138	2520 ± 238	0.23 ± 0.01	1.0	4250 ± 500	2150 ± 87	0.46 ± 0.01	a leftward shift and a decrease in the EC50 values
1.25 ± 0.12	CCCC(CCC)NC(=O)c1ccc2c(c1)OCO2 [S807, N-(heptan-4-yl)benzo[d][1,3]dioxole-5-carboxamide, reference compound]	–	–	–	–	–	–	–	–	1.02 ± 0.08	1.87 ± 0.03	–

Reference: article PMC12615753, “Glutathione as a taste modulator: molecular mechanisms of interaction with umami and sweet taste receptors” (Food Chemistry: Molecular Sciences, 2025)
